# Data from patent US20090068290A1, “BIFEPRUNOX DOSES FOR TREATING SCHIZOPHRENIA” (priority 2006, published 2009).
# Assays:
# [1] = system: patients with chronic schizophrenia; experiment: PANSS negative subscale score, Clinical Study Four; type: in vivo, human; settings: FAS, ANCOVA; for PANSS negative subscale, Adjusted Mean Change from Baseline (LS mean): LOCF; for mean PANSS negative subscale scores versus PBO, per-visit LOCF analysis: both BX doses
# Protocol: (§1) METHODOLOGY: This study was a multinational, multicenter, randomized, double-blind, parallel-group, placebo-controlled, fixed-dose study. The study consisted of a 3- to 6-day antipsychotic-free run-in period, after which patients were randomised to 6 months of double-blind treatment with fixed doses of bifeprunox (20 mg/day (BX20) or 30 mg/day (BX30)) or placebo (PBO). Patients allocated to the BX groups were up-titrated from 0.25 mg/day over 7 days (BX20) or 8 days (BX30), and then continued on these doses for the remainder of the study. […] At predetermined time points, blood samples were obtained for drug concentration analysis of BX and its major metabolites (3′- and 4′-sulfate conjugates of BX), and pharmaco-economic assessments were performed.
# [2] = system: patients with chronic schizophrenia; experiment: Movement rating scales SAS, BAS, AIMS, Clinical Study Four; type: in vivo, human; settings: for AIMS total score at Month 6: APTS; for proportion of patients normal with respect to SAS status: Month 6
# Protocol: as §1
# The SAS is used to measure Parkinsonian-type symptoms in patients exposed to antipsychotics. The scale consists of 10 items, each rated on a 5-point scale ranging from 0 (complete absence of the condition) to 4 (presence of the condition in extreme form). The SAS total score is defined as the sum of all item scores, and the range is 0 to 40. A SAS total score of up to 3 is considered normal.
# The BAS is used to rate observable, restless movements of drug-induced akathisia as well as the subjective awareness of restlessness and any distress associated with the akathisia. The scale consists of 3 items that is rated from 0 (no evidence of akathisia) to 3 (severe akathisia). The BAS total score is defined as the sum of the these three BAS item scores and ranges from is 0 to 9. In addition, a global clinical assessment of akathisia is rated from 0 (no evidence of akathisia) to 5 (severe akathisia).
# The AIMS, designed to record the occurrence of dyskinetic movements, consists of 12 items. Items 1 to 7 measure specific involuntary movements on a scale from 0 (none) to 4 (severe). Items 8 to 10 measure global assessment of abnormal movement on a scale from 0 (no awareness) to 4 (aware, severe distress). Items 11 and 12 are questions regarding the dental condition of the patient, with yes/no answers. The total score is calculated by summing AIMS items 1 through 10 and ranges from 0 to 40; the non-global total score is calculated by summing items 1 through 7.
# [3] = Lipid profile and fasting glucose, Clinical Study Four; type: in vivo, human
# Protocol: as §1
# [4] = Pooled metabolic analysis, 6-month study: lipid profile
# Source text: (§2) OBJECTIVE: To examine the metabolic effects of bifeprunox in patients with acute and stable schizophrenia.
# (§3) METHODS: Metabolic data was compiled from one 6-month and four 6-week studies (i.e., a treatment period) of bifeprunox in patients with stable and acute schizophrenia, respectively. In the 6-month study, patients received bifeprunox (n=331) or placebo (PBO) (n=166). […] Metabolic evaluations included body weight, body mass index (BMI), plasma glucose and lipid profiles. Fasting glucose and lipid values were assessed in one 6-week study and in the 6-month study. Triglyceride:HDL ratio (TG:HDL) was calculated as a marker of insulin resistance. No statistical analyses were performed; only descriptive statistics are presented.
# [5] = Pooled metabolic analysis, 6-week studies: lipid profile
# Source text: as §2, §3
# [6] = BX20 (bifeprunox 20 mg), Fasting
# [7] = BX20 (bifeprunox 20 mg), Non-fasting
# [8] = BX30 (bifeprunox 30 mg), Fasting
# [9] = BX30 (bifeprunox 30 mg), Non-fasting
# [10] = fasting, endpoint, 6-month study, BX total
# [11] = fasting, endpoint, 6-week studies, BX total, OLZ 15 mg
# [12] = non-fasting, endpoint, 6-week studies, BX total, RISP 6 mg, OLZ 15 mg, HAL 10 mg
smiles,measurement,setting,value
"O=c1[nH]c2cccc(N3CCN(Cc4cccc(-c5ccccc5)c4)CC3)c2o1 [Bifeprunox, 7-[4-([1,1′-biphenyl]-3-ylmethyl)-1-piperazinyl]-2(3H)-benzoxazolone]","PANSS negative subscale, Adjusted Mean Change from Baseline (LS mean)","[1]; Month 6, listed as BX20",−1.6
same,"PANSS negative subscale, Adjusted Mean Change from Baseline (LS mean)","[1]; Month 6, listed as BX30",−1.7
same,"PANSS negative subscale, Adjusted Mean Change from Baseline (LS mean)","[1]; Week 6, listed as BX20",−2.0
same,"PANSS negative subscale, Adjusted Mean Change from Baseline (LS mean)","[1]; Week 6, listed as BX30",−1.6
same,"mean PANSS negative subscale scores versus PBO, per-visit LOCF analysis",[1]; listed as BX,"statistically significantly superior to that with PBO at all time points, except at Weeks 2 and 4 for the BX30 group"
same,"mean PANSS negative subscale scores versus PBO, per-visit LOCF analysis",[1]; listed as BX20,"statistically significantly superior to that with PBO at all time points, except at Weeks 2 and 4 for BX30"
same,"AIMS score, mean (SD)","[2]; BX20, Baseline, LOCF",1.04 (2.76)
same,"BAS score, mean (SD)","[2]; BX20, Baseline, LOCF",0.44 (1.10)
same,"SAS score, mean (SD)","[2]; BX20, Baseline, LOCF",2.27 (3.72)
same,"AIMS score, mean (SD)","[2]; BX20, Baseline, OC",1.04 (2.76)
same,"BAS score, mean (SD)","[2]; BX20, Baseline, OC",0.46 (1.10)
same,"SAS score, mean (SD)","[2]; BX20, Baseline, OC",2.27 (3.72)
same,"AIMS score, mean (SD)","[2]; BX20, Month 6, LOCF",1.55 (3.92)
same,"BAS score, mean (SD)","[2]; BX20, Month 6, LOCF",0.49 (1.25)
same,"SAS score, mean (SD)","[2]; BX20, Month 6, LOCF",1.22 (2.47)
same,"AIMS score, mean (SD)","[2]; BX20, Month 6, OC",1.08 (2.13)
same,"BAS score, mean (SD)","[2]; BX20, Month 6, OC",0.17 (0.42)
same,"SAS score, mean (SD)","[2]; BX20, Month 6, OC",0.97 (2.20)
same,"AIMS score, mean (SD)","[2]; BX20, Week 6, LOCF",1.59 (3.96)
same,"BAS score, mean (SD)","[2]; BX20, Week 6, LOCF",0.49 (1.21)
same,"SAS score, mean (SD)","[2]; BX20, Week 6, LOCF",1.43 (2.77)
same,"AIMS score, mean (SD)","[2]; BX20, Week 6, OC",1.16 (2.55)
same,"BAS score, mean (SD)","[2]; BX20, Week 6, OC",0.36 (0.99)
same,"SAS score, mean (SD)","[2]; BX20, Week 6, OC",1.31 (2.69)
same,AIMS total score at Month 6,"[2]; BX20, OC",1.08
same,proportion of patients normal with respect to SAS status,[2]; BX20,89%
same,"AIMS score, mean (SD)","[2]; BX30, Baseline, LOCF",1.35 (2.79)
same,"BAS score, mean (SD)","[2]; BX30, Baseline, LOCF",0.45 (1.11)
same,"SAS score, mean (SD)","[2]; BX30, Baseline, LOCF",2.33 (3.53)
same,"AIMS score, mean (SD)","[2]; BX30, Baseline, OC",1.35 (2.79)
same,"SAS score, mean (SD)","[2]; BX30, Baseline, OC",2.33 (3.53)
same,"AIMS score, mean (SD)","[2]; BX30, Month 6, LOCF",2.77 (6.09)
same,"SAS score, mean (SD)","[2]; BX30, Month 6, LOCF",2.09 (3.64)
same,"AIMS score, mean (SD)","[2]; BX30, Month 6, OC",0.86 (3.18)
same,"BAS score, mean (SD)","[2]; BX30, Month 6, OC",0.16 (0.65)
same,"SAS score, mean (SD)","[2]; BX30, Month 6, OC",1.16 (2.78)
same,"AIMS score, mean (SD)","[2]; BX30, Week 6, LOCF",2.83 (6.09)
same,"BAS score, mean (SD)","[2]; BX30, Week 6, LOCF",0.66 (1.55)
same,"SAS score, mean (SD)","[2]; BX30, Week 6, LOCF",2.35 (3.87)
same,"AIMS score, mean (SD)","[2]; BX30, Week 6, OC",1.80 (4.25)
same,"SAS score, mean (SD)","[2]; BX30, Week 6, OC",2.06 (3.41)
same,AIMS total score at Month 6,"[2]; BX30, OC",0.86
same,proportion of patients normal with respect to SAS status,[2]; BX30,78%
same,adjusted mean fasting glucose increase from baseline to Month 6,[3]; BX20,0.13 mmol/L
same,"Cholesterol, total, Mean change from baseline to Month 6",[3]; [6],-0.18 mmol/L
same,"HDL, direct, Mean change from baseline to Month 6",[3]; [6],0.07 mmol/L
same,"LDL, calculated, Mean change from baseline to Month 6",[3]; [6],-0.1 mmol/L
same,"Triglycerides, Mean change from baseline to Month 6",[3]; [6],-0.08 mmol/L
same,"VLDL, calculated, Mean change from baseline to Month 6",[3]; [6],-0.03 mmol/L
same,"Cholesterol, total, Mean change from baseline to Month 6",[3]; [7],-0.42 mmol/L
same,"HDL, direct, Mean change from baseline to Month 6",[3]; [7],0.12 mmol/L
same,"LDL, calculated, Mean change from baseline to Month 6",[3]; [7],-0.35 mmol/L
same,"Triglycerides, Mean change from baseline to Month 6",[3]; [7],-0.41 mmol/L
same,"VLDL, calculated, Mean change from baseline to Month 6",[3]; [7],-0.19 mmol/L
same,adjusted mean HDL cholesterol change from baseline to Month 6,"[3]; BX20, fasting",0.07 mmol/L
same,adjusted mean triglycerides change from baseline to Month 6,"[3]; BX20, fasting",-0.16 mmol/L
same,adjusted mean HDL cholesterol change from baseline to Month 6,"[3]; BX20, non-fasting",0.08 mmol/L
same,adjusted mean triglycerides change from baseline to Month 6,"[3]; BX20, non-fasting",-0.21 mmol/L
same,adjusted mean fasting glucose increase from baseline to Month 6,[3]; BX30,0.09 mmol/L
same,"Cholesterol, total, Mean change from baseline to Month 6",[3]; [8],-0.22 mmol/L
same,"HDL, direct, Mean change from baseline to Month 6",[3]; [8],0.05 mmol/L
same,"LDL, calculated, Mean change from baseline to Month 6",[3]; [8],-0.12 mmol/L
same,"Triglycerides, Mean change from baseline to Month 6",[3]; [8],-0.40 mmol/L
same,"VLDL, calculated, Mean change from baseline to Month 6",[3]; [8],-0.16 mmol/L
same,"Cholesterol, total, Mean change from baseline to Month 6",[3]; [9],-0.10 mmol/L
same,"HDL, direct, Mean change from baseline to Month 6",[3]; [9],0.08 mmol/L
same,"LDL, calculated, Mean change from baseline to Month 6",[3]; [9],-0.12 mmol/L
same,"Triglycerides, Mean change from baseline to Month 6",[3]; [9],0.06 mmol/L
same,"VLDL, calculated, Mean change from baseline to Month 6",[3]; [9],0.03 mmol/L
same,adjusted mean HDL cholesterol change from baseline to Month 6,"[3]; BX30, fasting",0.07 mmol/L
same,adjusted mean triglycerides change from baseline to Month 6,"[3]; BX30, fasting",-0.37 mmol/L
same,adjusted mean HDL cholesterol change from baseline to Month 6,"[3]; BX30, non-fasting",0.08 mmol/L
same,adjusted mean triglycerides change from baseline to Month 6,"[3]; BX30, non-fasting",-0.03 mmol/L
same,change in total cholesterol (TC),[4]; 6-month study,-0.31 mmol/L
same,decrease in TG:HDL,[4]; 6-month study,23%
same,decrease in total cholesterol (TC),[4]; 6-month study,6%
same,total cholesterol and triglycerides (in words),[4]; 6-month study,reduced to a greater extent with bifeprunox than with placebo
same,"Fasting HDL, Mean change (SD)",[4]; [10],2.9 (9.3) mg/dL
same,"Fasting HDL, Percentage mean change",[4]; [10],6.2%
same,"Total cholesterol, Mean change (SD)",[4]; [10],−11.6 (29.7) mg/dL
same,"Total cholesterol, Percentage mean change",[4]; [10],−6.4%
same,"Triglyceride:HDL ratio, Mean change (SD)",[4]; [10],−0.4 (1.0)
same,"Triglyceride:HDL ratio, Percentage mean change",[4]; [10],−23.0%
same,"Triglycerides, Mean change (SD)",[4]; [10],−28.0 (76.0) mg/dL
same,"Triglycerides, Percentage mean change",[4]; [10],−19.4%
same,"Fasting LDL, Mean change (SD)",[4]; in vivo,−9.7 (27.6) mg/dL
same,"Fasting LDL, Percentage mean change",[4]; in vivo,−8.6%
same,change in TG values,[4]; over 6-months,-0.32 mmol/L
same,decrease in TG values,[4]; over 6-months,19%
same,change in total cholesterol (TC),[5]; 6-week studies,-0.40 mmol/L
same,decrease in total cholesterol (TC),[5]; 6-week studies,8%
same,non-fasting total cholesterol and triglyceride at endpoint (in words),[5]; 6-week studies,greatest decreases
same,change in TG,[5]; 6 week studies,-0.44 mmol/L
same,decrease in TG,[5]; 6 week studies,24%
same,"Fasting HDL, Mean change (SD)",[5]; [11],−0.5 (10.7) mg/dL
same,"Fasting HDL, Percentage mean change",[5]; [11],−1.0%
same,"Total cholesterol, Mean change (SD)",[5]; [11],−15.5 (32.9) mg/dL
same,"Total cholesterol, Percentage mean change",[5]; [11],−7.9%
same,"Triglyceride:HDL ratio, Mean change (SD)",[5]; [11],−0.4 (0.9)
same,"Triglyceride:HDL ratio, Percentage mean change",[5]; [11],−23.8%
same,"Triglycerides, Mean change (SD)",[5]; [11],−38.9 (73.5) mg/dL
same,"Triglycerides, Percentage mean change",[5]; [11],−24.2%
same,"Total cholesterol, Mean change (SD)",[5]; [12],−12.9 (0.8) mg/dL
same,"Triglycerides, Mean change (SD)",[5]; [12],−38.7 (1.3) mg/dL
